Counter-ions that a name gives are not always drawn.
How the values were obtained:
5-HT transporter = 5-HT transporter (Rattus norvegicus, UniProt P31652); experiment: Rat Brain 3H-Paroxetine Binding Assay (RB 5HT Transporter); conditions: rat frontal cortical membranes; 3H-paroxetine 0.1 nM, 60 min, 25° C.
Excerpt: Rat Brain ^3H-Paroxetine Binding Assay (RB 5HT Transporter):
This assay was used to determine a compound's affinity of the 5-HT transporter.
All reactions were terminated by the addition of ice cold Tris buffer followed by rapid filtration using a Tom Tech filtration device to separate bound from free ^3H-paroxetine.

human 5-HT1A receptors = biological target: T1, human 5-HT1A receptors (Homo sapiens, UniProt P08908); experiment: displacement of [3H] 8-OH-DPAT from the 5-HT1A serotonin receptor; assay type: binding; conditions: CHO cells stably transfected with human 5-HT1A receptors
T1 construct: expressed in transfected cells; host or cells: CHO cells
T1 sequence (P08908 1-422): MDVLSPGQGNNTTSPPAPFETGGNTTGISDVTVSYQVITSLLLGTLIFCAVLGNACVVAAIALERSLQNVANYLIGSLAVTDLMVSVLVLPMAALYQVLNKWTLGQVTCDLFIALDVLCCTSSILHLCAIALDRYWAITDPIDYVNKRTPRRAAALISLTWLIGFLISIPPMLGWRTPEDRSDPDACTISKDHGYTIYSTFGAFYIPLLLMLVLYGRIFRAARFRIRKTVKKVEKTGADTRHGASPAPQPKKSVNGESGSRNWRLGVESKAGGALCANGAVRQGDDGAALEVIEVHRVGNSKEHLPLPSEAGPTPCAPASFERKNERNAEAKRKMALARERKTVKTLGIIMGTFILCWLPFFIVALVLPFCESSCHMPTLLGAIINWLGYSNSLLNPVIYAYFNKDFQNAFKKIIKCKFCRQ

Sequence of 5-HT transporter (P31652 whole entry): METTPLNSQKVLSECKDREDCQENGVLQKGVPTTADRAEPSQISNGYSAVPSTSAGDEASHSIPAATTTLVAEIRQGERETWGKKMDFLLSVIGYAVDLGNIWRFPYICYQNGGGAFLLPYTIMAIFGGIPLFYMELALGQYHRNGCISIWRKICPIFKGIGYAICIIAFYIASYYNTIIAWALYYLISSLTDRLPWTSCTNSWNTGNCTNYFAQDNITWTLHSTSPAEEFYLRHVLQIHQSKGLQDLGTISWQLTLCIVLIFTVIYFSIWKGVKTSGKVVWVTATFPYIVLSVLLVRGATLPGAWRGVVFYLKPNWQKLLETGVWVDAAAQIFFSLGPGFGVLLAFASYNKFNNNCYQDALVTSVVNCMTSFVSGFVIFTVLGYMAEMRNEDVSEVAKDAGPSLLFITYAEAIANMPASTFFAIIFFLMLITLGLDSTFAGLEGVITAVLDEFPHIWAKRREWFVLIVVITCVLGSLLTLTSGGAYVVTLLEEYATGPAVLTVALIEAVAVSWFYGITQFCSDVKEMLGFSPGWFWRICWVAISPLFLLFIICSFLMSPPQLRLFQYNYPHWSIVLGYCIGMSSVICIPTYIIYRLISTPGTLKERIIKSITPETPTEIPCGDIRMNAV

melting point [°C] | Ki (5-HT transporter) [µM] | Ki (human 5-HT1A receptors) [µM] | SMILES
80 | – | – | COc1cc(N2CCN(CCc3coc4ccc(F)cc34)CC2)c2ncccc2c1 (as salt: HCl) [Compound 16, 8-{4-[2-(5-fluoro-1-benzofuran-3-yl)ethyl]-1-piperazinyl}-6-methoxy-quinoline]
55 | – | – | Fc1cc(N2CCN(CCc3coc4ccc(F)cc34)CC2)c2ncccc2c1 (as salt: HCl) [Compound 17, 8-{4-[2-(5-fluoro-1-benzofuran-3-yl)ethyl]-1-piperazinyl}-6-fluoro-quinoline]
248 | – | – | COc1cccc2c(CCN3CCN(c4cc(Cl)cc5cccnc45)CC3)coc12 (as salt: HCl) [Compound 20, 8-{4-[2-(7-methoxy-1-benzofuran-3-yl)ethyl]-1-piperazinyl}-6-chloro-quinoline]
192 | – | – | COc1cccc2c(C(C)CN3CCN(c4cccc5cccnc45)CC3)coc12 (stereo not shown) (as salt: HCl) [Compound 31, 8-{4-[2-(7-methoxy-1-benzofuran-3-yl)propyl]-1-piperazinyl}quinoline]
55 to 58 | – | – | COc1cccc2c(C(C)CN3CCN(c4cc(Cl)cc5cccnc45)CC3)coc12 (stereo not shown) (as salt: HCl) [Compound 33, 8-{4-[2-(7-methoxy-1-benzofuran-3-yl)propyl]-1-piperazinyl}-6-chloro-quinoline]
78 | 0.00725 | 0.00283 | COc1ccc2occ(CCN3CCN(c4cccc5cccnc45)CC3)c2c1 [Compound 21, 8-{4-[2-(5-methoxy-1-benzofuran-3-yl)ethyl]-1-piperazinyl}-quinoline]
72 | 0.002 | 0.00269 | COc1ccc2occ(CCN3CCN(c4cc(Cl)cc5cccnc45)CC3)c2c1 [Compound 22, 8-{4-[2-(5-methoxy-1-benzofuran-3-yl)ethyl]-1-piperazinyl}-6-chloro-quinoline]
164 to 165 | 0.065 | 0.00225 | Clc1cc(N2CCN([C@H]3CC[C@@H](c4csc5ccccc54)CC3)CC2)c2ncccc2c1 [Compound 41, 8-{4-[4-cis-(1-benzothien-3-yl)cyclohexyl]-1-piperazinyl}-6-chloroquinoline]
143 to 144 | 0.157 | 0.14 | Clc1cc(N2CCN([C@H]3CC[C@H](c4csc5ccccc54)CC3)CC2)c2ncccc2c1 [Compound 42, 8-{4-[4-trans(1-benzothien-3-yl)cyclohexyl]-1-piperazinyl}-6-chloroquinoline]
147 to 151 | 0.311 | 0.00117 | Fc1cc(N2CCN([C@H]3CC[C@@H](c4csc5ccccc54)CC3)CC2)c2ncccc2c1 [Compound 43, 8-{4-[4-cis(1-benzothien-3-yl)cyclohexyl]-1-piperazinyl}-6-fluoroquinoline]
195 | 0.38 | 0.13 | Fc1cc(N2CCN([C@H]3CC[C@H](c4csc5ccccc54)CC3)CC2)c2ncccc2c1 [Compound 44, 8-{4-[4-trans(1-benzothien-3-yl)cyclohexyl]-1-piperazinyl}-6-fluoroquinoline]
148 to 150 | 0.259 | 0.00173 | COc1cc(N2CCN([C@H]3CC[C@@H](c4csc5ccccc54)CC3)CC2)c2ncccc2c1 [Compound 45, 8-{4-[4-cis(1-benzothien-3-yl)cyclohexyl]-1-piperazinyl}-6-methoxyquinoline]
166 to 168 | 0.021 | 0.126 | COc1cc(N2CCN([C@H]3CC[C@H](c4csc5ccccc54)CC3)CC2)c2ncccc2c1 [Compound 46, 8-{4-[4-trans (1-benzothien-3-yl)cyclohexyl]-1-piperazinyl}-6-methoxyquinoline]
143 to 144 | 0.155 | 0.00028 | Fc1cc(N2CCN([C@H]3CC[C@H](c4csc5ccc(F)cc54)CC3)CC2)c2ncccc2c1 [Compound 48, 6-fluoro-8-{4-[4-trans(5-fluoro-1-benzothien-3-yl)cyclohexyl]piperazin-1-yl}quinoline]
– | 0.092 | 0.00137 | COc1cc(N2CCN([C@H]3CC[C@@H](c4csc5ccc(F)cc54)CC3)CC2)c2ncccc2c1 [Compound 49, 6-methoxy-8-{4-[4-cis(5-fluoro-1-benzothien-3-yl)cyclohexyl]piperazin-1-yl}quinoline]
– | 0.01 | 0.0259 | COc1cc(N2CCN([C@H]3CC[C@H](c4csc5ccc(F)cc54)CC3)CC2)c2ncccc2c1 [Compound 50, 6-methoxy-8-{4-[4-trans(5-fluoro-1-benzothien-3-yl)cyclohexyl]piperazin-1-yl}quinoline]

melting point [°C] | Ki (5-HT transporter) [µM] | Ki (human 5-HT1A receptors) [µM] | SMILES
192 to 197 | 0.133 | 0.00414 | Fc1ccc2scc([C@H]3CC[C@@H](N4CCN(c5ccc(Cl)c6cccnc56)CC4)CC3)c2c1 [Compound 51, 5-chloro-8-{4-[4-cis(5-fluoro-1-benzothien-3-yl)cyclohexyl]piperazin-1-yl}quinoline]
195 to 197 | 0.048 | – | Fc1ccc2scc([C@H]3CC[C@H](N4CCN(c5ccc(Cl)c6cccnc56)CC4)CC3)c2c1 [Compound 52, 5-chloro-8-{4-[4-trans(5-fluoro-1-benzothien-3-yl)cyclohexyl]piperazin-1-yl}quinoline]
142 to 144 | 0.208 | 0.00174 | Fc1ccc(N2CCN([C@H]3CC[C@@H](c4coc5ccccc54)CC3)CC2)c2ncccc12 [Compound 53, 8-{4-[4-cis(1-benzofuran-3-yl)cyclohexyl]-1-piperazinyl}-5-fluoroquinoline]
162 to 164 | 0.038 | 0.0251 | Fc1ccc(N2CCN([C@H]3CC[C@H](c4coc5ccccc54)CC3)CC2)c2ncccc12 [Compound 54, 8-{4-[4-trans(1-benzofuran-3-yl)cyclohexyl]-1-piperazinyl}-5-fluoroquinoline]
– | 0.116 | 0.00011 | Fc1cc(N2CCN([C@H]3CC[C@@H](c4coc5ccccc54)CC3)CC2)c2ncccc2c1 [Compound 55, 8-{4-[4-cis(1-benzofuran-3-yl)cyclohexyl]-1-piperazinyl}-6-fluoroquinoline]
195 to 197 | 0.077 | 0.0166 | Fc1cc(N2CCN([C@H]3CC[C@H](c4coc5ccccc54)CC3)CC2)c2ncccc2c1 [Compound 56, 8-{4-[4-trans(1-benzofuran-3-yl)cyclohexyl]-1-piperazinyl}-6-fluoroquinoline]
143 to 146 | 0.163 | 0.0004 | COc1cccc2c1occ2[C@H]1CC[C@@H](N2CCN(c3ccc(F)c4cccnc34)CC2)CC1 [Compound 57, 5-fluoro-8-{4-[4-cis(7-methoxy-1-benzofuran-3-yl)cyclohexyl]-1-piperazinyl}quinoline]
– | 0.034 | 0.0211 | COc1cccc2c1occ2[C@H]1CC[C@H](N2CCN(c3ccc(F)c4cccnc34)CC2)CC1 [Compound 58, 5-fluoro-8-{4-[4-trans(7-methoxy-1-benzofuran-3-yl)cyclohexyl]-1-piperazinyl}quinoline]
75 to 83 | 0.048 | 0.00193 | COc1cccc2c1occ2[C@H]1CC[C@@H](N2CCN(c3cc(F)cc4cccnc34)CC2)CC1 [Compound 59, 6-fluoro-8-{4-[4-cis(7-methoxy-1-benzofuran-3-yl)cyclohexyl]-1-piperazinyl}quinoline]
195 to 197 | 0.05 | 0.00016 | COc1cccc2c1occ2[C@H]1CC[C@H](N2CCN(c3cc(F)cc4cccnc34)CC2)CC1 [Compound 60, 6-fluoro-8-{4-[4-trans(7-methoxy-1-benzofuran-3-yl)cyclohexyl]-1-piperazinyl}quinoline]
– | 0.087 | 0.00092 | COc1cccc2c1occ2[C@H]1CC[C@@H](N2CCN(c3ccc(Cl)c4cccnc34)CC2)CC1 [Compound 63, 5-chloro-8-{4-[4-cis(7-methoxy-1-benzofuran-3-yl)cyclohexyl]piperazin-1-yl}quinoline]
– | 0.049 | 0.0187 | COc1cccc2c1occ2[C@H]1CC[C@H](N2CCN(c3ccc(Cl)c4cccnc34)CC2)CC1 [Compound 64, 5-chloro-8-{4-[4-trans(7-methoxy-1-benzofuran-3-yl)cyclohexyl]piperazin-1-yl}quinoline]
– | 0.053 | 0.0101 | COc1ccc2occ([C@H]3CC[C@@H](N4CCN(c5ccc(Cl)c6cccnc56)CC4)CC3)c2c1 [Compound 65, 5-chloro-8-{4-[4-cis(5-methoxy-1-benzofuran-3-yl)cyclohexyl]piperazin-1-yl}quinoline]
– | 0.089 | 0.00199 | COc1ccc2occ([C@H]3CC[C@H](N4CCN(c5ccc(Cl)c6cccnc56)CC4)CC3)c2c1 [Compound 66, 5-chloro-8-{4-[4-trans(5-methoxy-1-benzofuran-3-yl)cyclohexyl]piperazin-1-yl}quinoline]
193 to 194 | – | 0.162 | COc1cc(N2CCN([C@H]3CC[C@H](c4cc5ccccc5s4)CC3)CC2)c2ncccc2c1 [Compound 71]

Reference: patent publication US7276603B2, “Benzofuranyl-and benzothienyl-piperazinyl quinolines and methods of their use” (Wyeth, priority 2003, dated 2007)
